Experimental data as given in patent US10787448B2, “Indolizino [3,2-C] quinoline-based fluorescent probe” (SEOUL NATIONAL UNIVERSITY R & DB FOUNDATION, priority 2015, dated 2020).
Entries after “also recorded” stand apart in the source; their conditions may differ. One block for each compound: values may come before it.

Tests used:
[1] = Photostability of fluorescence in aqueous solution or ethanol (natural light, blue light); format: physicochemical; details: aqueous solution; for stability of fluorescence under irradiation with blue light: blue light for 2 hours; for photostability: fluorescence over time: natural light, up to 6 hours
Procedure: As a candidate material that can be applied to a fluorescent probe, to confirm how long fluorescence persists in materials with high fluorescence intensity in an aqueous solution among the indolizino[3,2-c]quinoline compounds, photostability according to time in an aqueous solution or ethanol solvent was evaluated as follows.
First, fluorescence of a corresponding material was measured using a cuvette, and the fluorescence per time for the cuvette sample was remeasured until 6 to 7 hours in a natural light state so as to confirm fluorescence stability.
Further, from the above example, when the indolizino[3,2-c]quinoline compounds including the IQ 3, 4, 6 and 8 compounds in which the fluorescence is stably maintained in an aqueous solution for approximately 6 hours are represented by Formula X, some materials in which neither A, B, C nor D ring has a substituent were selected and irradiated with blue light in an aqueous solution, and then a stability experiment was carried out to confirm the maintenance of the fluorescence.

[2] = biological target: Human Serum Albumin (HSA) (Homo sapiens, UniProt P02768); test: Protein binding by fluorescence change (FRET, Job's plot, titration, quantum yield)
Procedure: Using a fluorescence spectrophotometer, it was confirmed whether the indolizino[3,2-c]quinoline compound of the present invention binds to a protein. Specifically, among the indolizino[3,2-c]quinoline compounds, 13 types of compounds with high fluorescence in a Tris buffer (pH 7.5) were added to Bovine Serum Albumin (BSA) and Human Serum Albumin (HSA) to observe a fluorescence change.

[3] = Analysis of optical characteristics (absorption, fluorescence emission, quantum yield) in solvents; format: physicochemical; details: for quantum yield: in ethanol using coumarin 153 as a standard
Procedure: Fluorescence emission spectra were obtained at 20° C. using a JASCO FP-6500 spectrofluorometer, a 10 mM stock solution prepared by dissolving an indolizino[3,2-c]quinoline compound in DMSO was diluted in a solvent. […] Absorption spectra were recorded at room temperature using a Perkin Elmer Lamda 20 UV/VIS spectrometer. […]
Further, the compounds (excluding Entry #51-57, etc.) of Formula 1 were subjected to spectrum analyses in various solvents, and the results are shown in Tables 6 and 7, and FIGS. 5C and 5D.

[4] = test system: HeLa cells; test: Cell permeability: fluorescence imaging and live cell confocal imaging; format: cell-based; details: HeLa cells
Procedure: HeLa cells were seeded in a 96-well plate and incubated for 24 hours. The cells were treated with the indolizino[3,2-c]quinoline compounds, and incubated at 37° C. under a 5% CO2 condition for 30 minutes. After removal of the medium, the cells were washed with 1×DPBS. The washed cells were fixed with 4% formaldehyde at room temperature for 10 minutes, and washed with 1×DPBS. A cell image was screened using an Operetta HTS imaging system (PerkinElmer).
After HeLa cells were seeded to account for 70 to 80% of the area of a confocal dish (SPL life science) and overnight cultured, the indolizino[3,2-c]quinoline compounds (10 μM) prepared by mixing fresh DMEM after removal of the existing DMEM medium were dispensed, and the cells were incubated for 30 minutes to 1 hour at 37° C. Afterward, if needed, LysoTracker (50 nM) was mixed with DMEM to remove the existing medium and then dispensed to the cells, and the cells were incubated for 30 minutes at 37° C. After incubation, without washing, the cells were examined by a confocal laser microscope (Leica TCS SP8 SMD, Leica, Mannheim, Germany). However, when co-stained with a LysoTracker, the cells were washed with DPBS twice before the microscopy. […]

[5] = test system: cells; test: Co-staining / co-localization with DAPI, MitoTracker or LysoTracker; format: cell-based; details: for organelle selectivity by co-localization: MitoTracker or LysoTracker
[6] = test system: DNA oligomers (48 bp) tetO sequences; test: Binding to DNA by fluorescence spectrophotometer; details: hybridized tetO DNA oligomers added, 1 minute incubation
Procedure: Using a fluorescence spectrophotometer, it was confirmed whether the indolizino[3,2-c]quinoline compound of the present invention binds to DNA. First, DNA oligomers (48 bp) used in the experiment are tetO sequences, and the base sequences thereof are as follows.
The same molarities of oligomers were mixed while being heated at 95° C. for 5 minutes and cooled to room temperature for 2 hours to hybridize, the fluorescence of each of the indolizino[3,2-c]quinoline compounds of the present invention was measured, a corresponding equivalent of DNA oligomer was added to a cuvette, and then incubated while blocking light for 1 minute to measure fluorescence again.

[7] = biological target: T1, PDEδ (Homo sapiens, UniProt O43924); test: Titration using fluorescence polarization; format: binding; details: 0.5 μM compound, PDEδ protein from 0 to 32 μM
T1 construct: made in house; host or cells: E. coli
Procedure: To confirm whether the indolizino[3,2-c]quinoline compound can bind to a specific intracellular protein, in the presence of 0.5 μM of the indolizino[3,2-c]quinoline compound, titration was performed by increasing the concentration of the PDEδ protein from 0 to 32 μM to measure a polarization degree.

Human Serum Albumin (HSA), sequence (P02768 25-609): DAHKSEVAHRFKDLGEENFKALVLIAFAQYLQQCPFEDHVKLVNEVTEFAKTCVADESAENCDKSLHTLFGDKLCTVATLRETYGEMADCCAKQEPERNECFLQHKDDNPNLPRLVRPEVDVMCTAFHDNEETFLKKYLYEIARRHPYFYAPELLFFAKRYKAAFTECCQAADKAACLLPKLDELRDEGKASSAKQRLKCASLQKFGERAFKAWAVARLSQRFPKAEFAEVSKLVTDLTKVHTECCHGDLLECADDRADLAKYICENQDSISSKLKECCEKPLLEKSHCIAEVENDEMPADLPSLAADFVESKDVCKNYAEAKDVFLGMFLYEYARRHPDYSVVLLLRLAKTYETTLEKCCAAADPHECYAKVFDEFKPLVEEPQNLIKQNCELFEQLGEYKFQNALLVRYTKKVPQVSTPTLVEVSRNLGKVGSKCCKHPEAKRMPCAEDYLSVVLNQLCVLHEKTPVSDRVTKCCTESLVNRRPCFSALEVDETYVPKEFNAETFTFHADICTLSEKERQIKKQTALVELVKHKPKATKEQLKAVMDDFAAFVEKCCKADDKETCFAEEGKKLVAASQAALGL
T1 sequence (O43924 whole entry): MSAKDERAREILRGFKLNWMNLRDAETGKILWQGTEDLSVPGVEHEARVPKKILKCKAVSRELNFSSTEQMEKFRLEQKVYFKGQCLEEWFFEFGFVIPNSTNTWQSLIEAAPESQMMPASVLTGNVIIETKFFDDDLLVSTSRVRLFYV

Compound: c1ccc(-c2nc3ccccc3c3cc4ccccn4c23)cc1 [IQ 4, 6-phenylindolizino[3,2-c]quinoline]
stability of fluorescence under irradiation with blue light [1]: still stably exhibited fluorescence intensity
photostability: fluorescence over time [1]: stably maintained in an aqueous solution up to 6 hours with almost no change
fluorescence change on binding to HSA [2]: increasing fluorescence intensity

Compound: c1ccc(-c2nc3ccccc3c3cc4ccccn4c23)nc1 [IQ 5, 6-(pyridin-2-yl)indolizino[3,2-c]quinoline]
stability of fluorescence under irradiation with blue light [1]: still stably exhibited fluorescence intensity

Compound: c1ccc2c(-c3nc4ccccc4c4cc5ccccn5c34)cccc2c1 [IQ 9, 6-(naphthalen-1-yl)indolizino[3,2-c]quinoline]
fluorescence (intensity, in words) [3]: strong fluorescence
solvent-dependent (environment-sensitive) tendency of the emission [3]: solvatochromic effect
peak emission (λmax) ([3]; aqueous solution (H2O)): 465.5 nm
peak emission (λmax) ([3]; ethanol solvent (EtOH)): 516 nm
quantum yield [3]: 0.402
fluorescence change on binding to HSA [2]: increasing fluorescence intensity

Compound: COc1ccc(-c2nc3ccccc3c3cc4cc(/C=C/c5ccccc5)ccn4c23)cc1 [IQ-B19, (E)-6-(4-methoxyphenyl)-10-styrylindolizino[3,2-c]quinoline]
fluorescence (intensity, in words) [3]: high fluorescence in other solvents as well as an aqueous solution
organelle selectivity by co-localization [5]: selectively present in the lysosome

Compound: CCN(CC)c1ccc(-c2nc3ccccc3c3cc4ccccn4c23)cc1 [compound 37]
quantum yield (Φ) ([3]; DW, standard Rhodamine 6G): 0.001
quantum yield (Φ) ([3]; EtOH, standard Coumarin 153): 0.324
shift of maximum emission wavelength on addition of DNA oligomer [6]: wavelength to longer wavelength

Compound: c1coc(-c2nc3ccccc3c3cc4ccccn4c23)c1 [compound 42]
Kd [7]: 425 nM

Compound: COC(=O)c1c2c3ccccc3nc(-c3cccs3)c2n2ccccc12 [compound 44]
quantum yield (Φ) ([3]; DW, standard Rhodamine 6G): 0.010
quantum yield (Φ) ([3]; EtOH, standard Coumarin 153): 0.050
shift of maximum emission wavelength on addition of DNA oligomer [6]: wavelength to shorter wavelength

Compound: COc1ccc(-c2nc3ccccc3c3c(-c4ccc(F)cc4)c4ccccn4c23)cc1 [compound 45]
quantum yield (Φ) ([3]; DW, standard Rhodamine 6G): 0.033
quantum yield (Φ) ([3]; EtOH, standard Coumarin 153): 0.557
change in fluorescence intensity on addition of DNA oligomer [6]: No change in fluorescence intensity

Compound: COc1ccc(-c2nc3ccccc3c3c(-c4ccc(Cl)cc4)c4ccccn4c23)cc1 [compound 46]
quantum yield (Φ) ([3]; DW, standard Rhodamine 6G): 0.039
quantum yield (Φ) ([3]; EtOH, standard Coumarin 153): 0.604
change in fluorescence intensity on addition of DNA oligomer [6]: No change in fluorescence intensity

Continued, in another order:

fluorescence change on binding to HSA [2]: increasing fluorescence intensity
Compound: Cc1ccc(-c2nc3ccccc3c3cc4ccccn4c23)cc1 [IQ 3, 6-(p-tolyl)indolizino[3,2-c]quinoline]
stability of fluorescence under irradiation with blue light [1]: still stably exhibited fluorescence intensity
photostability: fluorescence over time [1]: stably maintained in an aqueous solution up to 6 hours with almost no change

solvent-dependent (environment-sensitive) tendency of the emission [3]: solvatochromic effect
peak emission (λmax) ([3]; ethanol solvent (EtOH)): 511 nm
quantum yield [3]: 0.816
Compound: COc1ccc(-c2nc3ccccc3c3cc4ccccn4c23)cc1 [IQ 6, 6-(4-methoxyphenyl)indolizino[3,2-c]quinoline]
stability of fluorescence under irradiation with blue light [1]: still stably exhibited fluorescence intensity
photostability: fluorescence over time [1]: stably maintained in an aqueous solution up to 6 hours with almost no change
intracellular molecule recognized [4]: recognized intracellular RNA
intracellular organelles in which fluorescence is detected [4]: intensively distributed in cytoplasmic and nucleolus areas
staining pattern compared with conventional dyes [5]: an aspect similar to RNA select for staining RNA

quantum yield (QY) when bound to HSA [2]: 0.43
emission after adding 1 equiv. of the compound to HSA ([2]; excited at 280 nm): approximately 450 nm
emission of the compound ([2]; excited at 280 nm): approximately 500 nm
Kd ([2]; titration): 1890 nM
Compound: COc1cc(OC)cc(-c2nc3ccccc3c3cc4ccccn4c23)c1 [IQ 7, 6-(3,5-Dimethoxyphenyl)indolizino[3,2-c]quinoline]
fluorescence change on binding to HSA [2]: fluorescence intensity became higher than the fluorescence of the material; also recorded: increasing fluorescence intensity
FRET with HSA ([2]; excited at 280 nm, 1 equiv. of compound): fluorescence resonance energy transfer (FRET) phenomenon occurred
intracellular organelles in which fluorescence is detected [4]: stained intensively in the nuclear area

fluorescence change on binding to HSA [2]: increasing fluorescence intensity
Compound: COc1ccc(-c2nc3ccccc3c3cc4ccccn4c23)cc1OC [IQ 8, 6-(3,4-dimethoxyphenyl)indolizino[3,2-c]quinoline]
photostability: fluorescence over time [1]: stably maintained in an aqueous solution up to 6 hours with almost no change
intracellular organelles in which fluorescence is detected [4]: stained intensively in the nuclear area

fluorescence change on binding to HSA [2]: increasing fluorescence intensity
Compound: c1ccc2cc(-c3nc4ccccc4c4cc5ccccn5c34)ccc2c1 [IQ 10, 6-(naphthalen-2-yl)indolizino[3,2-c]quinoline]

fluorescence change on binding to HSA [2]: increasing fluorescence intensity
Compound: COc1cc(OC)cc(-c2nc3ccccc3c3cc4c(C)cccn4c23)c1 [IQ 16, 6-(3,5-dimethoxyphenyl)-11-methylindolizino[3,2-c]quinoline]
intracellular molecule recognized [4]: recognized DNA
intracellular organelles in which fluorescence is detected [4]: stained intensively in the nuclear area
staining pattern compared with conventional dyes [5]: staining almost similar to DAPI

fluorescence change on binding to HSA [2]: increasing fluorescence intensity
quantum yield (QY) when bound to HSA [2]: 0.4
Compound: COc1ccc(-c2nc3ccccc3c3cc4c(C)cccn4c23)cc1OC [IQ 17, 6-(3,4-dimethoxyphenyl)-11-methylindolizino[3,2-c]quinoline]
intracellular molecule recognized [4]: recognized DNA
intracellular organelles in which fluorescence is detected [4]: stained intensively in the nuclear area

change in fluorescence intensity on addition of DNA oligomer [6]: gradually decreased
shift of maximum emission wavelength on addition of DNA oligomer [6]: shorter wavelength
Compound: Cc1cccn2c1cc1c3ccccc3nc(-c3ccco3)c12 [IQ 18, 6-(furan-2-yl)-11-methylindolizino[3,2-c]quinoline]
intracellular organelles in which fluorescence is detected [4]: distributed in the mitochondria
fluorescence change on light irradiation [5]: increasing fluorescence by receiving light; also recorded: fluorescence is increased
organelle selectivity by co-localization [5]: selectively stains the mitochondria
Pearson's coefficient ([5]; co-localization experiment with MitoTracker): ≥ 0.8

fluorescence change on binding to HSA [2]: increasing fluorescence intensity
Compound: COc1ccc(-c2nc3ccccc3c3c(Cl)c4ccccn4c23)cc1 [IQ 40, 12-chloro-6-(4-methoxyphenypindolizino[3,2-c]quinoline]

quantum yield (Φ) ([3]; DW, standard Rhodamine 6G): 0.142
quantum yield (Φ) ([3]; EtOH, standard Coumarin 153): 0.624
change in fluorescence intensity on addition of DNA oligomer [6]: Increase in fluorescence intensity
Compound: COc1ccc(-c2nc3ccccc3c3c(Cl)c4ccccn4c23)cc1 [compound 40]
